# Legend:
# MM.1 = experiment: Growth of cells, viable cell count by trypan blue dye exclusion; type: cell-based; conditions: Homo sapiens, Mm1; MM.1, curcumin 1 μM
# Source text: (§1) The results are shown as the mean (±s. d.) cell count from triplicate cultures.
# U266 = experiment: as above; type: cell-based; conditions: Homo sapiens, U-266; U266, curcumin 1 μM
# Source text: as §1
# MM.1R = experiment: as above; type: cell-based; conditions: Homo sapiens, curcumin 1 μM
# Source text: as §1
# RPMI 8226 = experiment: as above; type: cell-based; conditions: Homo sapiens; RPMI 8226, curcumin 1 μM
# Source text: as §1
# cyclin D1 = experiment: Western blot for NF-κB-regulated gene product cyclin D1 in U266 cells; type: cell-based, human; conditions: curcumin 50 μM
# Description: (§2) Sixty micrograms of cytoplasmic extracts were resolved on 10% SDS-PAGE gel, electrotransferred on a nitrocellulose membrane, and probed for the following: IκBα (FIG. 4A); Bcl-2 (FIG. 4B); Bcl-xL (FIG. 4C) and cyclin D1 (FIG. 4D). The same blots were stripped and reprobed with anti-β-actin antibody to show equal protein loading (lower panel in each figure). FIG. 4E: […] U266, MM.1 or RPMI 8226 cells (1×10^7) were treated with curcumin ([…]) in 5 ml of medium for the indicated times. Supernatants were harvested and concentrated approximately 20×, and IL-6 was quantitated by an IL-6 ELISA kit. Values shown were normalized to 1 ml of un-concentrated supernatants. Thirty to fifty micrograms of cytoplasmic protein extracts prepared as described (Chaturvedi et al., 2000) were resolved on 10% SDS-PAGE gel. After electrophoresis, the proteins were electrotransferred to a nitrocellulose membrane, blocked with 5% nonfat milk, and probed with antibodies against either IkBa, phospho-IkBa, Bcl-2, Bcl-xL, or cyclin D1 (1:3000) for 1 h. Thereafter, the blot was washed, exposed to HRP-conjugated secondary antibodies for 1 h, and finally detected by chemiluminescence (ECL, Amersham Pharmacia Biotech., Arlington Heights, Ill.).
# PARP = experiment: Western blot for PARP cleavage (apoptosis); type: cell-based, human; conditions: U266, curcumin 50 μM, time course
# Description: (§3) The cells were washed and total proteins were extracted by lysing the cells. Sixty microgram of extracts were resolved on 10% SDS-PAGE gel, electrotransferred to a nitrocellulose membrane, and probed with anti-procaspase-9 (FIG. 6C), anti-procaspase-7 (FIG. 6D), anti-PARP (FIG. 6E, upper panel) and anti-cleaved PARP (FIG. 6E, lower penal). […] Lysates were then spun at 14000 rpm for 10 min to remove insoluble material, resolved on 7.5% gel and probed with PARP antibodies. PARP was cleaved from the 116-kDa intact protein into 85-kDa and 40-kDa peptide products. To detect cleavage products of procaspase 7 and procaspase 9, whole cell extracts were resolved on 10% gel and probed with appropriate antibodies.
# U266 cells = experiment: Cytotoxic effect of vincristine with or without curcumin (MTT); type: cell-based, human; conditions: U266, curcumin 10 μM alone, 24 h
# Description: The antiproliferative effects of curcumin against different multiple myeloma cell lines were determined by the MTT dye uptake method as described earlier (Manna et al., 1998). Briefly, cells (5000/well) were incubated in triplicate in a 96-well plate in the presence or absence of indicated test samples in a final volume of 0.1 ml for 24 h at 37° C. Thereafter, 0.025 ml of MTT solution (5 mg/ml in PBS) was added to each well. After a 2 h incubation at 37 ° C., 0.1 ml of extraction buffer (20% SDS, 50% dimethylformamide) was added. Incubation was continued for overnight at 37 ° C., and then the OD at 590 nm was measured using a 96-well multiscanner autoreader (Dynatech MR 5000), with extraction buffer as blank. Percent cell viability=(OD of the experiment samples/OD of the control)×100.
# STAT3 = experiment: Immunocytochemistry for STAT3 in bone marrow CD138+ cells from multiple myeloma patients; type: cell-based, human; conditions: patients #5, #9 and #10, 50 μM curcumin, 2 h (legend b30: 1 h)
# Description: The cells were fixed on slides by cytospin centrifugation and immuno-stained for NF-κB or STAT3. Red stain indicates specific staining for NF-κB or STAT3, whereas blue stain indicates the relative position of the nuclei in the corresponding view.
# Red stain indicates the specific staining for NF-κB or STAT3 as indicated, whereas blue stain indicates the relative position of the nuclei in the corresponding view.
# Untreated or treated multiple myeloma cells were plated on a poly-L-lysine-coated glass slide by centrifugation using a Cytospin 4 (Thermoshendon, Pittsburg, Pa.), air-dried for 1 h at room temperature, and fixed with cold acetone. After a brief washing in PBS, slides were blocked with 5% normal goat serum for 1 h and then incubated either with rabbit polyclonal anti-human NF-κB p65 antibody (SC-109; dilution, 1:100) or with anti-human STAT3 antibody (SC-482; dilution, 1:100). After overnight incubation, the slides were washed and then incubated with goat anti-rabbit IgG-Alexa 594 (A-11037; dilution, 1:100) for 1 h and counter-stained for nuclei with Hoechst (50 ng/ml) for 5 min. Stained slides were mounted with mounting medium (Sigma Colo.) and analyzed under an epifluorescence microscope (Labophot-2, Nikon, Tokyo, Japan). […]
# Bcl-xL = experiment: Western blot for NF-κB-regulated gene product Bcl-xL in U266 cells; type: cell-based, human; conditions: curcumin 50 μM, time course
# Description: as §2
# caspase-7 = experiment: Western blot for procaspase-7 (apoptosis); type: cell-based, human; conditions: U266, curcumin 50 μM, time course
# Description: as §3
structure (smiles),measurement,setting,value
"COc1cc(/C=C/C(=O)CC(=O)/C=C/c2ccc(O)c(OC)c2)ccc1O [curcumin, diferuloylmethane]",inhibition at 1 µM,MM.1,45%
same,inhibition at 1 µM,U266,27%
same,inhibition at 1 µM,MM.1R,51%
same,inhibition at 1 µM,RPMI 8226,23%
same,time to complete depletion of cyclin D1,cyclin D1,≤ 4 h
same,PARP cleavage,PARP,cleavage of a 118-kDa PARP protein into an 89-kDa fragment
same,cells killed,U266 cells,approximately 35%
same,constitutive STAT3 activation (nuclear localization),STAT3,downregulated this transcripion factor
same,Bcl-xL protein level,Bcl-xL,only a partial decline
same,activation of caspase-7 (disappearance of 35-kDa band),caspase-7,time-dependent activation

# — patent US7196105B2, “Treatment of human multiple myeloma by curcumin” (Research Development Foundation, priority 2002, dated 2007)
